Source: the METLIN SMRT retention time set (Domingo-Almenara et al. 2019)

experiment: gradient 5% acetonitrile 3 min, to 50% in 2 min, to 85% in 15 min, held 3 min, 100 µL/min; details: column: Zorbax Extend-C18 2.1 x 50 mm; eluents: water / acetonitrile, 0.1% formic acid
Outline: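 Values are retention times taken from adduct peaks that software picked and an analyst inspected. The pure standards were run as mixtures of ~100 molecules on HPLC linked to a quadrupole time-of-flight mass spectrometer, in positive and negative ionization mode. A Zorbax Extend-C18 column (2.1 × 50 mm, 1.8 μm) was used at 100 μL/min with water and acetonitrile, each including 0.1% formic acid.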

Structure (SMILES)	RP-LC retention time
COc1ccc(NC(=O)c2cccn(C)c2=O)cc1N1CCCC1=O	618 s
O=C(Cn1c(=O)n(-c2ccccc2)c2ncccc21)NCCN1CCCCC1	585 s
Cc1ccc(NC(=O)c2cnc(-c3ccccc3)nc2-c2ccncc2)c(Br)c1	987 s
COc1ccc(OCc2nc3ccc(C)cc3[nH]2)cc1	578 s
O=C(Nc1ccccc1F)N1CCC2(CCC2N2CCOCC2)CC1 (stereo not given)	554 s
COc1ccc(-c2nc3cnccn3c2Nc2ccc(Cl)cc2)cc1	896 s
Cc1cc(-c2ccc(S(=O)(=O)N3CCC(C(=O)NCCC(C)C)CC3)o2)n[nH]1	783 s
Cc1cc([N+](=O)[O-])ccc1Nc1cccc(Cl)c1C	1030 s
Cc1ccc(NC(=O)N2CCc3c(c(-c4nnc(-c5ccc(F)cc5)o4)nn3C)C2)c(Cl)c1	944 s
CCn1cc(CCNC(=O)Nc2c(C)cccc2C)c2cccnc21	705 s
CCOc1ccc(S(=O)(=O)N2CCc3c(c(-c4nnc(-c5ccccc5F)o4)nn3C)C2)cc1	945 s
COc1cc(NC(=O)C2(C)CCCCC(=O)N2)cc(OC)c1 (stereo not given)	612 s
COc1ccc(C(=O)NC2CCN(c3cc(-c4ccc(F)cc4)[nH]n3)C2)c(OC)c1 (stereo not given)	740 s
O=C(NC(C(=O)N1CCCc2ccccc21)c1ccccc1)C1CC(=O)N(c2ccccc2)C1 (stereo not given)	951 s
COC(=O)C1=C(C)N(C(C)C)C(=O)C1(NC(=O)c1ccccc1OC)C(F)(F)F (stereo not given)	1010 s
Fc1ccc(-c2nc3cnccn3c2Nc2ccc3c(c2)OCCO3)cc1	818 s
CN1c2cc(Cl)ccc2C(=O)NC12CCN(C(=O)NCCc1ccccc1)CC2	757 s
CC1=NS(=O)(=O)N(C)C=C1C(=O)OCc1nc(-c2cccc(F)c2)no1	967 s
O=C1CC[C@@]2(O)C3Cc4ccc(O)c5c4C2(CCN3CC2CC2)[C@H]1O5 (stereo not given in full)	599 s
O=C(Cc1cccs1)NC1CC(=O)N(Cc2ccccc2)C1 (stereo not given)	712 s
O=C(Nc1cccc(-c2ccc(N3CCOCC3)nn2)c1)Nc1ccc(F)c(Cl)c1	770 s
c1ccc(C(NCc2cccnc2)(c2ccccc2)c2ccccc2)cc1	831 s
Cc1nc(C2(C)CCN(S(=O)(=O)c3cc(C)c(C)cc3C)CC2)no1	1070 s

Structure (SMILES)	RP-LC retention time
COc1cc(F)ccc1-c1ccnc2nc(-c3cccs3)nn12	918 s
CC(C)CCNC(=O)C1(C)Cn2nc(C(=O)NCc3ccccc3Cl)cc2C(=O)N1C (stereo not given)	814 s
Cc1ccc(NC(=O)CC2COc3ccccc3NC2=O)cc1F (stereo not given)	769 s
CCCCN1C(=O)C(CC(=O)N2CCOCC2)Sc2ncccc21 (stereo not given)	708 s
CCOC(=O)c1c(C)oc2nc(C)nc(NCCCN(CC)c3ccccc3)c12	825 s
CCOc1ccc2nc(SCC(=O)Nc3nccs3)[nH]c2c1	622 s
CC1CC(=O)N(CC(=O)Nc2ccc3c(c2)OCCO3)c2ccccc2S1 (stereo not given)	859 s
CC1CCCN(C(=O)c2nc(-c3ccnc(N4CCCC4)c3)no2)C1 (stereo not given)	682 s
COc1ccc(-c2nnc(-c3ccc(Cl)c(S(=O)(=O)N4CCCC4)c3)o2)cc1	1060 s
O=C(NC1CCCC1)c1c2c(nc3ccccc13)CCCC2	625 s
CCCN(CC1CCOC1)C(=O)Nc1cc(F)c(F)c(F)c1 (stereo not given)	844 s
Cc1ccc(N2CCN(C(=O)c3cn4c(n3)COCC4)CC2)cc1	651 s
CCOCCOC(=O)C1=C(C)NC2=C(C(=O)CC(C)(C)C2)C1c1cccc(OC)c1OC (stereo not given)	791 s
Cc1ccc(CNC(=O)c2ccc3ncnc(N4CCCC4)c3c2)o1	617 s
CC(C)(C)c1csc(-c2csc(S(=O)(=O)NCc3cccs3)c2)n1	1180 s
CCc1cccc(C)c1Nc1c(-c2cccc(O)c2)nc2nc(C)cc(C)n12	712 s
Cc1nc(C)c(C(=O)Nc2cc(Cl)ccc2C)s1	837 s
Cc1ccc(Cl)cc1-n1ncc2c(NCCN3CCOCC3)ncnc21	629 s
COc1ccc(OC)c(NC(=O)CN2CC(C)Sc3ccccc32)c1 (stereo not given)	1080 s
Cc1cc(Cl)ccc1NC(=O)Cn1cccc1-c1nnc(C2CCC2)o1	1040 s
O=C(Cc1nnc(-c2cccc(F)c2)o1)N1CCCCC1	630 s
COC(=O)c1ncn2c1C(=O)N(C1CC1)C(C)(C(=O)NCc1ccccc1Cl)C2 (stereo not given)	658 s
CCc1ccc2nc(Nc3ncc4c(n3)CC(c3cccc(Cl)c3)CC4=O)nc(C)c2c1 (stereo not given)	896 s

Structure (SMILES)	RP-LC retention time
COc1ccc(C(=O)N2CCN(c3cc(C(C)C)n4cnnc4n3)CC2)c(OC)c1	609 s
CCc1nc(-c2cc(S(=O)(=O)N3CCC(C(=O)NCc4ccc(C)o4)CC3)c(C)s2)no1	969 s
COc1cc([N+](=O)[O-])ccc1NC(=O)c1ccccc1S(C)(=O)=O	749 s
CN1C[C@@H]2c3ccccc3Oc3ccc(Cl)cc3[C@H]2C1	758 s
O=C(CN1CCC(COCc2ccccc2)CC1)Nc1ccc2c(c1)OCCO2	605 s
CCc1cc(C(=O)Nc2ccc(C)c(C)c2)nc2ccnn12	1150 s
CCOc1ccc(-c2ccc(=O)n(Cc3nc(-c4ccccn4)no3)n2)cc1	813 s
COCCNC(=O)C1CCN(c2nccc(C)n2)CC1	561 s
CCSc1nnc(NC(=O)C2CCC(=O)N2S(=O)(=O)c2ccc(C)cc2)s1 (stereo not given)	855 s
O=C(CN1N=C(C(=O)Nc2ccc(F)cc2)CCC1=O)Nc1cc(F)ccc1F	831 s
CCOC(=O)c1cnc2c(-c3cccc(Cl)c3)c(C)nn2c1N	1180 s
COc1ccc(NC(=O)c2cnc3c(c2)c(=O)n(C)c(=O)n3-c2ccc(OC)cc2)cc1	859 s
COc1ccc2nc(NC(=O)C3CCN(C(=O)C4Sc5ccccc5NC4=O)CC3)sc2c1 (stereo not given)	775 s
CC(C)Cn1cc(CCNC(=O)C2CCCCC2)c2cccnc21	817 s
Cc1ccc(-c2cc3c4nnc(SCC(=O)NCCC(C)C)n4ccn3n2)cc1C	942 s
CC(C)CC(=O)N1CCN(c2ccc(=O)n(-c3cccc(Cl)c3)n2)CC1	829 s
Cc1cccc2c(C(=O)NCC(C)C)c3c(nc12)CCC3	688 s
CCOC(=O)c1cccc(N2C=C(C#N)S(=O)(=O)c3ccc(F)cc32)c1	939 s
CCn1cc(CCNC(=O)Nc2cc(C)ccc2C)c2cccnc21	723 s
CSc1cccc(NC(=O)Cn2c(C)cc(-c3nnc(C)o3)c2C)c1	790 s
O=C(CN1CCC2(CC1)N=C(c1ccccc1)C(=O)N2)Nc1ccc(Br)cc1F	685 s
CCc1ccc(Nc2nc(C(=O)NCc3ccc(C)o3)nc3ccccc23)cc1	923 s
O=C(Nc1ccccc1Cl)c1cnc(-c2ccc(F)cc2)nc1-c1ccncc1	1000 s

Structure (SMILES)	RP-LC retention time
O=C(Cn1nc(N2CCCC2)c2ccccc2c1=O)Nc1ccc2c(c1)OCO2	854 s
CCN(CC)c1ccc(NC(=O)c2cccs2)cc1C(=O)O	626 s
CCS(=O)(=O)Nc1cccc(OCc2nnc(-c3ccc(C)cc3)o2)c1	867 s
CCCCN(C(=O)c1nc(C)n(C2CCN(S(C)(=O)=O)CC2)c1C)c1ccccc1	666 s
O=C(c1ccc(OCC2CCCN2C(=O)c2ccccc2F)cc1)N1CCCC1 (stereo not given)	813 s
CCOc1ccc(S(=O)(=O)NCc2c(-c3ccccc3)nc3sc(C)nn23)cc1	913 s
COc1ccc(C(=O)N2CCN3CCS(=O)(=O)N(C4CC4)C(=O)C3C2)c(OC)n1 (stereo not given)	732 s
COc1ccc(-c2ccc(=O)n(Cc3nc(-c4ccc(C)cc4)no3)n2)cc1OC	925 s
Cc1ccc(-c2csc(NC(=O)CSc3nnc(-c4cc5ccccc5o4)n3C)n2)cc1	1050 s
O=c1n(Cc2ccc3c(c2)OCO3)nc2c(S(=O)(=O)N3CCOCC3)cccn12	736 s
O=C1[C@H]2CN(Cc3ccccc3F)C[C@H]2C(=O)N1CCc1ccccc1	781 s
CC12CCC(C(=O)NCc3ccccc3)(OC1=O)C2(C)C (stereo not given)	768 s
COc1ccc(NC(=O)N2CCN(c3nc4ccccc4n3C)CC2)c(OC)c1	609 s
COc1ccc(C2CC(=O)N(c3ccc(F)c(F)c3)C(=O)C2)cc1OC	852 s
Cc1ccc(NC(=O)N2CCc3nc[nH]c3C2)cc1C	606 s
Cc1c(C(=O)N2CCC(C(=O)N3CC=C(c4ccccc4)CC3)CC2)sc2nc[nH]c(=O)c12	728 s
Cc1noc(C)c1-c1ccc(S(=O)(=O)N2CCN(c3ccccc3)CC2)cc1	1080 s
CCCCN1N=C(C(=O)N2CCC(C)CC2)S(=O)(=O)c2ccc(C)cc21	1060 s
Cc1cc(N(C)C)n2nc(CN3CCC(Cc4ccccc4)CC3)nc2n1	637 s
CCOC(=O)C1CCN(C(=O)Cn2nc3c(N4CCCCCC4)nccn3c2=O)CC1	652 s
COc1ccc(C2C(C(=O)NCCN(C)C)c3ccccc3C(=O)N2C)cc1OC (stereo not given)	700 s
